Patent US20260125425A1, “Carrier Peptide Fragment and Use Thereof” (TOAGOSEI CO., LTD., priority 2022, published 2026)
Primed or numbered codes have the meaning given here. FAM″ = C-terminal FAM dye

Tested on: HeLa cells
Assay: cell membrane permeability in HeLa cells by flow cytometer
Format: cell-based, human
Settings: 20-hour incubation; for MFI (median fluorescence intensity): 10 µM in culture solution, 0.5% DMSO, 37° C., FL2 detector
Description: As the eukaryotic cells, HeLa cells (established cell strain derived from a human cervical cancer cell) were used and the cell membrane permeability of the sample 1 was evaluated. In Example 1, the prepared sample solution I was used, and in Example 12, the FAM solution was used.
The HeLa cell was cultured in 10% fetal bovine serum (FBS)-containing Dulbecco's modified Eagle's medium (DMEM (Cat No. 044-29765, manufactured by FUJIFILM Wako Pure Chemical Corporation)), which is a culture medium.
The HeLa cell that adhered to a culture plate was cleaned with PBS and then, a 0.25%-trypsin/EDTA solution was added thereto, and incubation was performed for three minutes at 37° C. After the incubation, the aforementioned 10% FBS-containing DMEM was added to deactivate trypsin and then, five-minute centrifugal separation was performed at 150×g to precipitate the cells. After the supernatant generated by the centrifugal separation was removed, the 10% FBS-containing DMEM was added to the precipitate (cell pellet) to prepare a cell suspension of about 2×10^5 cells/mL. The cell suspension was added by 1 mL to a well of a commercially available six-hole (well) plate (manufactured by AGC TECHNO GLASS Co., Ltd.) so as to seed the cell (about 2× 10^5 cells/well). In addition, the 2 mM sample solution 1 was diluted with the 10% FBS-containing DMEM to prepare the sample solution 1 in which the concentration of the sample 1 was 20 μM. […]
Regarding the obtained cells (cell pellet), the cell membrane permeability of the sample 1 was analyzed using a flow cytometer. […]
Using the aforementioned flow cytometer, gating based on forward scatter (FSC) and side scatter (SSC) was performed to set a gate about a cell group to be analyzed, and the fluorescence intensity was measured about the cell group in this gate. […] The fluorescence intensity was measured using a fluorescence detector FL2 of the flow cytometer (optimum detection wavelength around 543 nm) capable of detecting the fluorescence wavelength of FAM. […]

| Substance | MFI (median fluorescence intensity) | flow cytometer histogram (FIG. 1), cell membrane permeability (10 µM, compared to FAM alone (Example 2)) |
| --- | --- | --- |
| 5 (6)-carboxyfluorescein [Example 2, reference compound] | 10.6 | – |
| Ac-RKLAVYWSTYKRSR-FAM (Ac-RKLAVYWSTYKRSR-{FAM″}) [Example 1] | 14.5 | shifted to the right side compared to the histogram according to Example 2 |
